From patent US9488641B2, “Multicellular system and method for multiparametric analysis” (Case Western Reserve University, priority 2012, dated 2016) come the findings set out here.

“Also recorded” adds a separate entry of the source.

The subject of one test is MCF7-R cells. Description: Oxygen concentration under MCF7-R model agar half spheroid measured with Au microdisc electrode array; pharmacological modulation of cellular oxygen consumption. The test is classed as cell-based. Particulars: for Change of measured oxygen concentration after addition: 100 μm [sic] NaN3, 200 μm [sic] DNP; for Measured O2 concentration (%) after NaN3: 100 μM NaN3, representative experiment. How it is done:
Confluent plates of MCF7-R cells ere trypsinized and collected in a sterile 1 mL vial. The cell density and the total number of cells in the vial were estimated by cell counting using a hematocytometer. The cells were spun down in a centrifuge and the supernant medium removed. […] The vial with the cell-agar mixture was constantly kept in water bath at 37° C. to prevent the agar from gelling. Tiny hemispherical droplets (800-1000 μm diameter) of this mixture were deposited onto a Teflon® sheet using 0.5-2.5 μL pipette (Eppendorf, Hauppauge, N.Y.) to obtain hemispherical multicellular model agar spheroids. The Teflon® sheet with the model agar half spheroids was incubated in culture medium used for MCF7-R cell culture at 37° C. in 5% CO2. Henceforth, model agar half spheroids will be referred to simply as half spheroids.
The Au microdisc electrodes were polished using a fine emery paper to expose fresh electrode surface before each experiment. The polished electrodes were rinsed with DI water and allowed to dry in air (˜1 hour) after which a thin (˜10 μm) layer (spacer) of cellulose acetate was deposited. The electrodes were pre-conditioned electrochemically prior to starting the half spheroid experiment by continuous cyclic voltammograms (CV) until a stable measurement was reached (at least 50 CVs). The electrodes were calibrated for oxygen reduction current in PBS at different oxygen concentrations prior to the half spheroid experiment (henceforth, referred to as pre-calibration). A half spheroid was positioned on top of the electrode array and the oxygen concentrations inside the spheroid interrogated by linear scan voltammetry (LSV). Oxygen reduction currents under the half spheroid were recorded for half an hour after which the viability of cells inside the half spheroid was checked by pharmacological modulation of cellular oxygen consumption by administering metabolic poisons—NaN3 and DNP. At the end of the experiment the spheroid was removed and current corresponding to ambient oxygen concentration was recorded. The spheroid experiment was followed by a post experiment calibration (henceforth, referred to as post-calibration) of the electrodes to check for electrode drift. The LSV data recorded during these experiments was post processed to extract oxygen concentration values under the spheroid.
The Teflon® sheet on which half spheroids are was is removed from the incubating medium. A half spheroid was carefully transferred onto the electrode array using a curved edge of a pair of tweezers such that the radial electrode array was aligned along a spheroid radius (FIG. 8E). The positioning was done under a 2× stereo microscope to ensure that the spheroid is resting on its flat (bottom) edge. After the agar spheroid was positioned at the desired location a drop of low gelling agarose made in PBS maintained in liquid form at 37° C. was dispensed onto the spheroid from the top to secure its position and prevent it from moving with convective flow. PBS was added to the measurement device reservoir immediately after the spheroid position was secured. The time taken to position the spheroid from the time the half spheroid Petri-dish was removed from the incubator to the time when oxygen measurement is started is less than 3 minutes. During this time the cells in the spheroid (except the outer most shell) were not directly exposed to air.
Desired volumes of the NaN3, DNP and glucose solutions were gently added to the test solution using a disposable transfer pipettes. The solution was then homogenized by gentle circular movements induced by the same pipette for ˜10 s.

Test [1] relates to BAC1.2F5 macrophage cells. The test is described as follows: Oxygen uptake by BAC1.2F5 macrophage cells measured with Pt microring electrode (pulse amperometry). The test is classed as cell-based, mouse. How it is done: A CHI 1030 8-channel potentiostat (CH Instruments Inc., Austin, TZ) was used to perform all electrochemical experiments: Cyclic Voltammetry (CV) and Pulse Amperometry (PA). The experimental setup was placed inside a custom built Faraday cage which was equipped with an XYZ stage for manipulation of the devices and a custom built thermostat to maintain the temperature inside the Faraday cage at 25° C. A Scion camera was mounted on top of the Faraday cage to visual observation of the sensing unit of interest. The microfabricated Pt microring electrode was used as the working electrode of the electrochemical cell. An Ag/AgCl reference and a Pt counter electrode were used to complete the cell.
Live mouse macrophage cells (BAC1.2F5) were used for cell experiments. Culture and disposal procedures of these cells are described by E1-Moatassim and Dubyak (el-Moatassim and Dubyak 1992) in detail.
A 100 μL drop of cell medium with suspended cells (105 BAC 1.2F5 mouse macrophages/mL) was gently added to the buffer with a disposable plastic pipette on top of the chip ˜5 mm from the targeted sensing unit. A simple hydrodynamic manipulation technique previously developed in our laboratory (Yoshida, Tohda et al. 2003) was then used to precisely position the selected cell(s) inside the targeted microring electrode.
˜500 μL of the required solution was added to the buffer using a disposable plastic pipette. The buffer was then homogenized by gentle circular movements induced by the same pipette for ˜10 seconds.
Continuous measurement will lead to sustained depletion of oxygen near the electrode. When cells are positioned near the electrodes this depletion of oxygen may perturb oxygen dependent cellular processes by decreasing the local availability of oxygen. To mitigate this undesirable effect, a pulse amperometry (PA) protocol was implemented. In this protocol the electrode potential is maintained at +0.5 V where no oxygen reduction occurs, before stepping to −0.55 V at which oxygen is reduced. The length of both pulses was chosen to be 250 ms. This restricts the time of depletion of oxygen to the cathodic pulses by allowing for replenishment of oxygen during the anodic pulses. This protocol ensures a sampling rate of 2 Hz that can assess metabolic processes occurring on the seconds time scale. Current proportional to local oxygen concentration is recorded and averaged at the end of each cathodic pulse for 50 ms. This recording period is long enough to obtain a representative value while also minimizing interference by 60 Hz noise.
To confirm that the observed variations in oxygen concentration indicated by the MEMS device reflect physiological processes of the cell(s), we performed another experiment where the metabolic rate of the cell(s) was pharmacologically modulated. […]

Turning to `O=C[C@H](O)[C@@H](O)[C@H](O)[C@H](O)CO` [D-Glucose], the “Change of measured oxygen concentration after addition of glucose to the PBS” value with MCF7-R cells (25 mM D-Glucose added to PBS after the glucose-deprivation increase (FIG. 35)) was “decrease”.

In the case of `O=[N+]([O-])c1ccc(O)c([N+](=O)[O-])c1` [DNP, 2,4 dinitrophenol], the “Change of measured oxygen concentration after addition” value was “decreases” in the test with MCF7-R cells (15% cell volume fraction spheroid (FIG. 30)); “decreases” in the test with MCF7-R cells (15% cell volume fraction spheroid with 5% ambient pO2 (FIG. 34)); “decreases” in the test on MCF7-R cells (15% cell volume fraction spheroid with 10% ambient pO2 (FIG. 33)); “decreases” with MCF7-R cells (30% cell volume fraction spheroid as printed (FIG. 31), non-zero oxygen core). The “Change of measured oxygen concentrations after addition” value with MCF7-R cells (30% cell volume fraction half spheroid, ~20% ambient O2, 100 μM sodium azide, then 200 μM DNP (final concentrations)) is “decreased rapidly; also recorded: decreases”. Further, in the test with MCF7-R cells (MCF7-R cells in half spheroid, 100 μM NaN3, subsequent 200 μM DNP (final concentrations)), the “Oxygen consumption by the cells” value is “rapid increase”.

In the case of `[N-]=[N+]=[N-]` [NaN3, sodium azide], the “Measured O2 concentration (%) after NaN3” value in the test with MCF7-R cells (electrode E1, 610 μm from the center of the spheroid (outside spheroid), 30% cell volume fraction half spheroid) amounted to 15.9%; in the test with MCF7-R cells (electrode E2, 470 μm from the center of the spheroid, 30% cell volume fraction half spheroid), 14.3%; in the test with MCF7-R cells (electrode E3, 370 μm from the center of the spheroid, 30% cell volume fraction half spheroid), 10.8%; in the test with MCF7-R cells (electrode E4, 270 μm from the center of the spheroid, 30% cell volume fraction half spheroid) it was 9.9%; with MCF7-R cells (electrode E5, 180 μm from the center of the spheroid, 30% cell volume fraction half spheroid), 9.6%.

In the case of `C[C@@H]1O[C@@H](O[C@H]2C[C@@H](O)[C@]3(CO)[C@H]4[C@H](O)C[C@]5(C)[C@@H](C6=CC(=O)OC6)CC[C@]5(O)[C@@H]4CC[C@]3(O)C2)[C@H](O)[C@H](O)[C@H]1O` [ouabain], the “Current higher than that recorded before administration of ouabain” value in test [1] (cluster of 6 cells inside microring) is roughly 1.7 nA. Besides, the “Stabilized electrode current after addition of ouabain” value in test [1] (cluster of 6 cells inside microring, ~7.1 nA before ouabain) is roughly 8.8 nA. In test [1] (cluster of 6 cells inside microring, ~9% before ouabain), the “Oxygen concentration corresponding to stabilized current after ouabain” value was roughly 15%. The “Stationary local oxygen concentration immediately after administration of ouabain” value in test [1] (representative of 3 experiments) was “increase”.
